Assay: Log of liquid dish neat product liquid-air partition coefficient
Format: physicochemical
Details: not given

**Q.** Which “Comment Code: Log of liquid dish neat product liquid-air partition coefficient” value (“Comment Code: Log” for short) does the source give for `COc1ccccc1C=CC=O` [Material 26] here?
**A.** Its value is “K (Log of liquid dish neat product liquid-air partition coefficient greater than or equal to 7)”.

**Q.** For `CC1=C(C/C=C(\C)C=O)C(C)(C)CCC1` [Material 602], which “Comment Code: Log” value is on record?
**A.** The value was “K (Log of liquid dish neat product liquid-air partition coefficient greater than or equal to 7)”.

**Q.** For `CCCOC(=O)[C@H](C)OC(C)(C)CC` [Material 1030], which “Comment Code: Log” value is on record?
**A.** The value was “K (Log of liquid dish neat product liquid-air partition coefficient greater than or equal to 7)”.

**Q.** For `CC(C)C(=O)OC1CC2CCC1(C)C2(C)C` (stereo not shown) [Material 603], which “Comment Code: Log” value is on record?
**A.** Its value is “K (Log of liquid dish neat product liquid-air partition coefficient greater than or equal to 7)”.

**Q.** For `C=CC(C)(O)CCC=C(C)C` (stereo not shown) [Material 157], which “Comment Code: Log” value is on record?
**A.** The value was “K (Log of liquid dish neat product liquid-air partition coefficient greater than or equal to 7)”.

**Q.** Which “Comment Code: Log” value does the source give for `CC1=CC(C)C2(CCCC(C)(C)C2=O)CC1` (stereo not shown) [Material 1022] here?
**A.** Its value is “K (Log of liquid dish neat product liquid-air partition coefficient greater than or equal to 7)”.

**Q.** For `CCOC1CCC(C(C)(C)CC)CC1` (stereo not shown) [Material 12], which “Comment Code: Log” value is on record?
**A.** Its value is “K (Log of liquid dish neat product liquid-air partition coefficient greater than or equal to 7)”.

**Q.** Which “Comment Code: Log” value does the source give for `CCC(=O)OC(C)c1ccccc1` (stereo not shown) [Material 96] here?
**A.** The value was “K (Log of liquid dish neat product liquid-air partition coefficient greater than or equal to 7)”.

**Q.** For `CC(=O)OC(C)(C)C1CC=C(C)CC1` (stereo not shown) [Material 687], which “Comment Code: Log” value is on record?
**A.** The value was “K (Log of liquid dish neat product liquid-air partition coefficient greater than or equal to 7)”.

**Q.** With `c1ccc(COCc2ccccc2)cc1` [Material 454] as the compound, how does the “Comment Code: Log” value read?
**A.** Its value is “K (Log of liquid dish neat product liquid-air partition coefficient greater than or equal to 7)”.

**Q.** For `O=C1CCCC=CCCCCCCCCCC1` [Material 788], which “Comment Code: Log” value is on record?
**A.** Its value is “K (Log of liquid dish neat product liquid-air partition coefficient greater than or equal to 7)”.

**Q.** Which “Comment Code: Log” value does the source give for `CC1CC2CCC3C(C2O1)C(C)(C)C(C)C3(C)C` (stereo not shown) [Material 1097] here?
**A.** Its value is “K (Log of liquid dish neat product liquid-air partition coefficient greater than or equal to 7)”.

Same assay, conditions: code letter within the Comment Code cell

**Q.** For `CCC(=O)CCC1C(C)=CCCC1(C)C` (stereo not shown) [Material 293], which “Log of liquid dish neat product liquid-air partition coefficient (Comment Code K/L)” value (from here on “Log … (Comment Code K/L)”) is on record?
**A.** Its value is “K (Log of liquid dish neat product liquid-air partition coefficient greater than or equal to 7)”.

**Q.** With `CCCCCCCCCCCC=O` [Material 178] as the compound, how does the “Log … (Comment Code K/L)” value read?
**A.** Its value is “K (Log of liquid dish neat product liquid-air partition coefficient greater than or equal to 7)”.

**Q.** For `C=CCCCCCCCCC(=O)OCC` [Material 381], which “Log … (Comment Code K/L)” value is on record?
**A.** The value was “K (Log of liquid dish neat product liquid-air partition coefficient greater than or equal to 7)”.

**Q.** With `C=CCc1cc(OC)c2c(c1)OCO2` [Material 37] as the compound, how does the “Log … (Comment Code K/L)” value read?
**A.** Its value is “K (Log of liquid dish neat product liquid-air partition coefficient greater than or equal to 7)”.

**Q.** For `O=C1CCCCCCCCCCCCCC1` [Material 480], which “Log … (Comment Code K/L)” value is on record?
**A.** The value was “K (Log of liquid dish neat product liquid-air partition coefficient greater than or equal to 7)”.

**Q.** With `CCOC(=O)C1OC1(C)c1ccccc1` (stereo not shown) [Material 377] as the compound, how does the “Log … (Comment Code K/L)” value read?
**A.** Its value is “K (Log of liquid dish neat product liquid-air partition coefficient greater than or equal to 7)”.

**Q.** With `O=COCC=Cc1ccccc1` [Material 551] as the compound, how does the “Log … (Comment Code K/L)” value read?
**A.** Its value is “K (Log of liquid dish neat product liquid-air partition coefficient greater than or equal to 7)”.

**Q.** With `C=CCc1ccc(OC)c(OC)c1` [Material 110] as the compound, how does the “Log … (Comment Code K/L)” value read?
**A.** The value was “K (Log of liquid dish neat product liquid-air partition coefficient greater than or equal to 7)”.

**Q.** Which “Log … (Comment Code K/L)” value does the source give for `CCCCCCCCCCCC#N` [Material 498] here?
**A.** The value was “K (Log of liquid dish neat product liquid-air partition coefficient greater than or equal to 7)”.

**Q.** Which “Log … (Comment Code K/L)” value does the source give for `C=CCc1ccc(OC(C)=O)c(OC)c1` [Material 374] here?
**A.** Its value is “K (Log of liquid dish neat product liquid-air partition coefficient greater than or equal to 7)”.

**Q.** Which “Log … (Comment Code K/L)” value does the source give for `CCOC(C)OCCc1ccccc1` (stereo not shown) [Material 415] here?
**A.** Its value is “K (Log of liquid dish neat product liquid-air partition coefficient greater than or equal to 7)”.

**Q.** With `O=CCCC=C1CC2CC1C1CCCC21` (stereo not shown) [Material 418] as the compound, how does the “Log … (Comment Code K/L)” value read?
**A.** The value was “K (Log of liquid dish neat product liquid-air partition coefficient greater than or equal to 7)”.

**Q.** With `CC(O)C(C)Cc1ccccc1` (stereo not shown) [Material 82] as the compound, how does the “Log … (Comment Code K/L)” value read?
**A.** The value was “K (Log of liquid dish neat product liquid-air partition coefficient greater than or equal to 7)”.

**Q.** Which “Log … (Comment Code K/L)” value does the source give for `CCCCCCCCCC(C)C(OC)OC` (stereo not shown) [Material 101] here?
**A.** The value was “K (Log of liquid dish neat product liquid-air partition coefficient greater than or equal to 7)”.

**Q.** With `CCC1=C(O)C(=O)C(C)O1` (stereo not shown) [Material 259] as the compound, how does the “Log … (Comment Code K/L)” value read?
**A.** The value was “K (Log of liquid dish neat product liquid-air partition coefficient greater than or equal to 7)”.

Same assay, conditions: code letters K/L of the Comment Code

**Q.** With `CC1=CCC(O)(C(C)C)CC1` (stereo not shown) [Material 791] as the compound, how does the “Log of liquid dish neat product liquid-air partition coefficient (Comment Code)” value (shortened to “Log … (Comment Code)”) read?
**A.** The value was “K (Log of liquid dish neat product liquid-air partition coefficient greater than or equal to 7)”.

**Q.** For `CCCCCCCCCCO` [Material 868], which “Log … (Comment Code)” value is on record?
**A.** Its value is “K (Log of liquid dish neat product liquid-air partition coefficient greater than or equal to 7)”.

**Q.** Which “Log … (Comment Code)” value does the source give for `CC(C)=CCC/C(C)=C/CC/C(C)=C/CO` [Material 1065] here?
**A.** The value was “K (Log of liquid dish neat product liquid-air partition coefficient greater than or equal to 7)”.

**Q.** Which “Log … (Comment Code)” value does the source give for `CC(C)C(=O)OC1CC2CCC1(C)C2(C)C` (stereo not shown) [Material 603] here?
**A.** Its value is “K (Log of liquid dish neat product liquid-air partition coefficient greater than or equal to 7)”.

**Q.** With `CC1=CCCC2(C)OC2CCC(C)=CCC1` (stereo not shown) [Material 568] as the compound, how does the “Log … (Comment Code)” value read?
**A.** Its value is “K (Log of liquid dish neat product liquid-air partition coefficient greater than or equal to 7)”.

**Q.** With `CCC(O)COC1CCCCC1C(C)(C)C` (stereo not shown) [Material 677] as the compound, how does the “Log … (Comment Code)” value read?
**A.** The value was “K (Log of liquid dish neat product liquid-air partition coefficient greater than or equal to 7)”.

**Q.** For `CC1=CC(C)C2(CCCC(C)(C)C2=O)CC1` (stereo not shown) [Material 1022], which “Log … (Comment Code)” value is on record?
**A.** The value was “K (Log of liquid dish neat product liquid-air partition coefficient greater than or equal to 7)”.

**Q.** For `CC1(O)CCC2=C(CCCC2(C)C)C1` (stereo not shown) [Material 675], which “Log … (Comment Code)” value is on record?
**A.** The value was “K (Log of liquid dish neat product liquid-air partition coefficient greater than or equal to 7)”.

**Q.** Which “Log … (Comment Code)” value does the source give for `C=CCCC(=O)c1ccccc1` [Material 792] here?
**A.** Its value is “K (Log of liquid dish neat product liquid-air partition coefficient greater than or equal to 7)”.

**Q.** With `CCCCC/C=C/C=C\C(=O)OCC` [Material 951] as the compound, how does the “Log … (Comment Code)” value read?
**A.** The value was “K (Log of liquid dish neat product liquid-air partition coefficient greater than or equal to 7)”.

**Q.** With `O=C1CCCC=CCCCCCCCCCC1` [Material 788] as the compound, how does the “Log … (Comment Code)” value read?
**A.** The value was “K (Log of liquid dish neat product liquid-air partition coefficient greater than or equal to 7)”.

**Q.** With `CC(C)Cc1ccc2ccccc2n1` [Material 849] as the compound, how does the “Log … (Comment Code)” value read?
**A.** Its value is “K (Log of liquid dish neat product liquid-air partition coefficient greater than or equal to 7)”.

**Q.** Which “Log … (Comment Code)” value does the source give for `CC1CC2CCC3C(C2O1)C(C)(C)C(C)C3(C)C` (stereo not shown) [Material 1097] here?
**A.** Its value is “K (Log of liquid dish neat product liquid-air partition coefficient greater than or equal to 7)”.

Reference: patent US20170333591A9, “ABSORBENT ARTICLE COMPRISING MALODOR REDUCTION COMPOSITIONS” (The Procter & Gamble Company, priority 2014, published 2017)
